Assays:
[1] = test system: Z. tritici strain Mg Tri-R6; assay: Efficacy on first-leaf fragments of treated wheat plantlets cv. Alixan inoculated with Z. tritici, AUDPC-based (Examples 1-3); format: in vivo, Zymoseptoria tritici; settings: from AUDPC (21 and 28 dpi), percent of untreated control
Procedure: Winter wheat plants cv. Alixan (Limagrain) at the BBCH 12 growth stage are treated with a mixture of the compound of Formula I and a fungicide selected from the group consisting of fluindapyr, pydiflumetofen, mefentrifluconazole, fenpicoxamid, inpyrfluxam and isofetamid.
The compound of Formula I and the fungicide (A) are applied at different rates and at different weight ratio with a hand sprayer at 2 bars calibrated. For each condition tested, three replicates (pots) of 6 wheat plants are used.
Fragments of the first leaf are cut and are transferred into a Petri dish containing adapted water agar (6 leaf fragments per Petri dish). Fragments are inoculated with a calibrated pycnospores suspension of Z. tritici strain Mg Tri-R6.
(§1) After inoculation, Petri dishes are incubated in a climatic chamber having a temperature of 20° C. day/17° C. night, photoperiod of 16 h light/8 h dark, and controlled relative humidity. Disease assessments are carried out 21 days post inoculation (dpi) and 28 dpi by measuring the length of the necrosis of the leaf fragment. The intensity of infection is then determined as a percent of the total length of the leaf fragment.
(§2) The efficacy is calculated based on the Area Under the Disease Progress Curve (AUDPC) which is a quantitative measure of disease intensity over time. The most commonly used method for estimating the AUDPC, the trapezoidal method, is performed for each time interval by multiplying the average disease intensity between each pair of adjacent time points by the corresponding time interval.
The fungicide efficacies are determined from the AUDPC values and expressed as a percent of the untreated control.
The compound of Formula I and mefentrifluconazole were applied with a hand sprayer at 2 bars calibrated to deliver the equivalent of 200 L/ha. Three replicates (pots) of 6 wheat plants each were used for each treatment group.
Fragments of the first leaf were cut and transferred into a Petri dish containing adapted water agar (6 leaf fragments per Petri dish). Fragments were inoculated with a calibrated pycnospores suspension of Z. tritici strain Mg Tri-R6.
as §1, with “dishes were” for “dishes are”, “assessments were” for “assessments are”, “infection was” for “infection is”, “as” for “as a”
as §2, with “efficacy was” for “efficacy is”, “method, was” for “method, is”
(§3) The fungicide efficacies were determined from the AUDPC values and expressed as a percent of the untreated control.
The compound of Formula I and fenpicoxamid were applied with a hand sprayer at 2 bars calibrated to deliver the equivalent of 200 L/ha. […]
After inoculation, Petri dishes were incubated in a climatic chamber having a temperature of 20° C. day/17° C. night, photoperiod of 16 h light/8 h dark and controlled relative humidity. […] The intensity of infection was then determined as percent of the total length of the leaf fragment. […]

[2] = test system: Z. tritici strain Mg Tri-R6; assay: Efficacy on first-leaf fragments of treated wheat plantlets cv. Alixan inoculated with Z. tritici, AUDPC-based (Example 4, pydiflumetofen); format: in vivo, Zymoseptoria tritici; settings: from AUDPC (21 and 28 dpi)
Procedure: Winter wheat plants cv. Alixan (Limagrain) at the BBCH 12 growth stage were treated with mixture of Compound of Formula I and pydiflumetofen at several rates with a hand sprayer at 2 bars calibrated to deliver the equivalent of 200 L/ha. The Compound of Formula I was applied at 5 g a.i./ha. Pydiflumetofen was applied at 0.00032-0.0016 and 0.008 g a.i./ha. Three replicates (pots) of 6 wheat plants each were used for each condition tested.
After treatment, wheat plants were left to dry at room temperature for 1 hour and then incubated in a climatic chamber having a temperature of 24° C. day/18° C. night, photoperiod of 16 h light/8 h dark and a relative humidity of 65%. Fragments of the first leaf were cut and transferred in Petri dish containing adapted water agar (6 leaf fragments per Petri dish). Fragments were inoculated with a calibrated pycnospores suspension of Z. tritici strain Mg Tri-R6.
After inoculation, Petri dishes were incubated in a climatic chamber having a temperature of 20° C. day/17° C. night, photoperiod of 16 h light/8 h dark and controlled relative humidity.
Disease assessments were carried out 21 days post inoculation (dpi) and 28 dpi by measuring the length of the necrosis of the leaf fragment. The intensity of infection was then determined in percent of the total length of the leaf fragment.
as §2, with “efficacy was” for “efficacy is”, “method, was” for “method, is”
as §3

[3] = fungicide (A) alone, rate 0.39 g a.i./ha

In the case of Cc1ccc(S(=O)(=O)n2cc(F)c(=N)n(C)c2=O)cc1 [Compound of Formula I, 5-fluoro-4-imino-3-methyl-1-tosyl-3,4-dihydropyrimidin-2(1H)-one], the “Observed Efficacy” value ([1]; compound of Formula I alone, rate 5 g a.i./ha) is reported as 56.4%, the “Observed Efficacy” value ([1]; compound of Formula I alone, rate 10 g a.i./ha) is reported as 69.1% and the “Observed Efficacy” value ([2]; compound of Formula I alone, rate 5 g a.i./ha, Example 4) is reported as 63.2%.

In the case of COc1ccnc(C(=O)N[C@H]2COC(=O)[C@H](Cc3ccccc3)[C@@H](OC(=O)C(C)C)[C@H](C)OC2=O)c1OCOC(=O)C(C)C [Fenpicoxamid, (3S,6S,7R,8R)-8-benzyl-3-{3-[(isobutyryloxy)methoxy]-4-methoxypyridine-2-carboxamido}-6-methyl-4,9-dioxo-1,5-dioxonan-7-yl-isobutyrate], the “Observed Efficacy” value [1, 3] is reported as 56.0%.

With CC1CC(C)(C)c2c(F)ccc(NC(=O)c3cn(C)nc3C(F)F)c21 (stereo not drawn) [Fluindapyr, 3-(Difluoromethyl)-N-(7-fluoro-2,3-dihydro-1,1,3-trimethyl-1H-inden-4-yl)-1-methyl-1H-pyrazole-4-carboxamide] the “Observed Efficacy” value [1, 3] was 43.5%.

With CC(O)(Cn1cncn1)c1ccc(Oc2ccc(Cl)cc2)cc1C(F)(F)F (stereo not drawn) [Mefentrifluconazole, 2-[4-(4-chlorophenoxy)-2-(trifluoromethyl)phenyl]-1-(1,2,4-triazol-1-yl)propan-2-ol] the “Observed Efficacy” value [1, 3] was 46.8%.

CON(C(=O)c1cn(C)nc1C(F)F)[C@@H](C)Cc1c(Cl)cc(Cl)cc1Cl [Pydiflumetofen, 3-(difluoromethyl)-N-methoxy-1-methyl-N-[(2S)-1-(2,4,6-trichlorophenyl)propan-2-yl]-1H-pyrazole-4-carboxamide] was tested, and the “Observed Efficacy” value ([2]; pydiflumetofen alone, rate 0.00032 g a.i./ha) was 21.3%, the “Observed Efficacy” value ([2]; pydiflumetofen alone, rate 0.0016 g a.i./ha) was 35.6% and the “Observed Efficacy” value ([2]; pydiflumetofen alone, rate 0.008 g a.i./ha) was 44.0%.

From US20220248673A1, “FUNGICIDAL COMBINATIONS, MIXTURES AND COMPOSITIONS AND USES THEREOF” (priority 2019, published 2022)
